Experimental data from patent US20030032587A1, “Urocortin peptides” (The Salk Institute for Biological Studies, priority 1995, published 2003).
Bridges are numbered along the chain shown (N, C = ends). Where no end group is shown, it is not given here. [ ]: non-standard residue; d: D form.

What was measured:
[1] = test system: rat anterior pituitary cells; assay: ACTH secretion by anterior pituitary cell cultures in the presence of a challenge dose of ovine CRF (antagonist test); type: cell-based; details: for bioactivity as Ucn antagonists: result in words, test not specified
Text: (§1) A straightforward assay using rat anterior pituitary cells in monolayer culture can be carried out to determine whether a candidate peptide thereof will function as a CRF agonist and stimulate ACTH secretion by activating CRF receptors on such cells. The procedure which is used is that generally set forth in Endocrinology, 91, supra. A very similar assay is used to test for antagonistic properties, using a challenge dose of oCRF or the like.
An in vivo test measuring elevation of mean arterial blood pressure as a result of iv injection is also simply and straightforwardly performed.

[2] = test system: mammalian mean arterial blood pressure; assay: in vivo test measuring elevation of mean arterial blood pressure as a result of iv injection; details: result in words; indicative of a Ucn antagonist
Text: The peptide, Ucn(11-40), having the amino acid sequence (see SEQ ID NO: 8): […] is synthesized in the manner described in Example I. To evaluate the biological activity of a candidate peptide as a Ucn antagonist (which will be indicative of its effective binding to CRF receptors), the previously mentioned assay from Endocrinology, 91, supra, is run in the presence of a challenge dose of ovine CRF. […] An in vivo test measuring elevation of mean arterial blood pressure as a result of iv injection is also simply and straightforwardly performed.

[3] = test system: primary murine anterior pituitary cells; type: cell-based; details: for ACTH secretion in vitro, times as effective as r/hCRF (confidence limits): anterior pituitary cell cultures, relative to r/hCRF; for stimulates the secretion of ACTH and β-END-LI (β-endorphin): result in words
Text: as §1
To test the ability of purified Ucn or another candidate Ucn-like peptide to function as a CRF agonist and to promote ACTH production and/or secretion, cultures of dispersed primary murine anterior pituitary cells (0.15×10^6 cells/well are used), as generally described in Vale et al. Meth. Enzym., 103, 565-577 (1983), and in Endocrinology, 91, 562 (1972). These cultures are maintained in 0.5 ml/well of β-PJ (a reagent available from Kansas City Biochemicals) containing 2% fetal bovine serum. On the morning of culture day 5, the cells are washed 3 times with β-PJ containing 0.1% bovine serum albumin and then incubated for 1 hour at 37° C. in the same medium. The medium is then replaced with Ucn, or an analog thereof, diluted in β-PJ containing 0.1% bovine serum albumin. Incubations are terminated after 3 hours, at which time the medium is removed and stored at −20° C. until ACTH radioimmunoassays are performed using a suitable kit, such as that commercially available from Diagnostic Products Corporation of Los Angeles, Calif. Secreted ACTH is measured using Allfit computer program with results expressed as the average±s.e.m. of 3 replicate bioassays.

[4] = test system: mammalian systemic blood pressure; assay: mammalian vasodilatory-hypotensive activity; type: in vivo; details: result in words
[5] = target: CRF receptors on anterior pituitary cells in culture; assay: cell-based or functional assay

In the case of “H-D-Phe-His-Leu-Leu-Arg-Thr-Leu-Leu-Glu-Leu-Ala-Arg-Thr-Gln-Ser-Gln-Arg-Glu-Glu-Ala-Glu-Lys-Asn-Arg-Ile-Ile-Phe-Asp-Ser-Val-NH2 (H-[dF]HLLRTLLELARTQSQREEAEKNRIIFDSV-NH2; lactam 19-22 (inferred))”, the “inhibition of ACTH secretion in vitro, times as effective as the Standard Antagonist (confidence limits)” value ([1]; challenge dose of ovine CRF, relative to [D-Phe12,Nle21,38]-r/hCRF(12-41)) is reported as 10.34 (4.27-25.58) and the “vasoconstrictive activity causing elevation of mean arterial blood pressure” value [2] is reported as “significant mammalian vasoconstrictive activity”.

For [Ac-Thr^10]Ucn(10-40), the “bioactivity as Ucn antagonists” value [1] was “bioactivity as Ucn antagonists”.

With “Ucn (10-40) (TFHLLRTLLELARTQSQRERAEQNRIIFDSV; ends and bridges not checked; UniProt P55089 92-122, looked up, fragment)” the “bioactivity as Ucn antagonists” value [1] was “bioactivity as Ucn antagonists”.

“Ac-Pro-D-Ser-Leu-Ser-Ile-Asp-Leu-Thr-D-Phe-His-Leu-Leu-Arg-Thr-Leu-Leu-Glu-Leu-Ala-Arg-Thr-Gln-Ser-Gln-Arg-Glu-Glu-Ala-Glu-Lys-Asn-Arg-Ile-Ile-Phe-Asp-Ser-Val-NH2 (Ac-P[dS]LSIDLT[dF]HLLRTLLELARTQSQREEAEKNRIIFDSV-NH2; lactam 27-30 (inferred))” was tested, and the “ACTH secretion in vitro, times as effective as r/hCRF (confidence limits)” value (from here on “ACTH secretion … as r/hCRF (confidence limits)”) [3] was 5.69 (2.43-14.49), the “stimulates the secretion of ACTH and β-END-LI (β-endorphin)” value (“stimulates the secretion” for short) [3] was “stimulates the secretion of ACTH and β-END-LI” and the “vasodilatory-hypotensive activity, including lowering systemic blood pressure and stimulating the secretion of ACTH” value [4] was “causes vasodilatory-hypotensive activity”.

With “Ac-Pro-Ser-Leu-Ser-Ile-Asp-Leu-Thr-Phe-His-Leu-Leu-Arg-Thr-Leu-Leu-Glu-Leu-Ala-Arg-Thr-Gln-Ser-Gln-Arg-Glu-Arg-Ala-Glu-Gln-Asn-Arg-Ile-Ile-Phe-Asp-Ser-Val-NH2 (Ac-PSLSIDLTFHLLRTLLELARTQSQRERAEQNRIIFDSV-NH2) [[Ac-Pro^3]-hUcn(3-40)]” the “stimulates the secretion” value [3] was “stimulates the secretion of ACTH and β-END-LI” and the “vasodilatory-hypotensive activity, including lowering systemic blood pressure and stimulating the secretion of ACTH” value [4] was “causes vasodilatory-hypotensive activity”.

In the case of “H-Asp-Asn-Pro-Ser-Leu-Ser-Ile-Asp-Leu-Thr-Phe-His-Leu-Leu-Arg-Thr-Leu-Leu-Glu-Leu-Ala-Arg-Thr-Gln-Ser-Gln-Arg-Glu-Arg-Ala-Glu-Gln-Asn-Arg-Ile-Ile-Phe-Asp-Ser-Val-NH2 (H-DNPSLSIDLTFHLLRTLLELARTQSQRERAEQNRIIFDSV-NH2) [Human Ucn(1-40)]”, the “ACTH secretion … as r/hCRF (confidence limits)” value [3] is reported as 3.10 (1.41-6.65) and the “vasodilatory-hypotensive activity, including lowering systemic blood pressure and stimulating the secretion of ACTH” value [4] is reported as “significant mammalian vasodilatory-hypotensive activity”.

With “Ac-Pro-Ser-Leu-Ser-Ile-Asp-Leu-Thr-D-Phe-His-Leu-Leu-Arg-Thr-Leu-Leu-Glu-Leu-Ala-Arg-Thr-Gln-Ser-Gln-Arg-Glu-Glu-Ala-D-Glu-Lys-Asn-Arg-Ile-Ile-Phe-Asp-Ser-Val-NH2 (Ac-PSLSIDLT[dF]HLLRTLLELARTQSQREEA[dE]KNRIIFDSV-NH2; lactam 27-30 (inferred))” the “ACTH secretion … as r/hCRF (confidence limits)” value [3] was 6.14 (2.83-14.05), the “stimulates the secretion” value [3] was “stimulates the secretion of ACTH and β-END-LI” and the “vasodilatory-hypotensive activity, including lowering systemic blood pressure and stimulating the secretion of ACTH” value [4] was “causes vasodilatory-hypotensive activity”.

With “H-Tyr-Asp-Asp-Pro-Pro-Leu-Ser-Ile-Asp-Leu-Thr-Phe-His-Leu-Leu-Arg-Thr-Leu-Leu-Glu-Leu-Ala-Arg-Thr-Gln-Ser-Gln-Arg-Glu-Arg-Ala-Glu-Gln-Asn-Arg-Ile-Ile-Phe-Asp-Ser-val-NH2 [[Tyr^∘]rUcn(1-40)]” the “ACTH secretion … as r/hCRF (confidence limits)” value [3] was 2.20 (1.28-3.88) and the “vasodilatory-hypotensive activity, including lowering systemic blood pressure and stimulating the secretion of ACTH” value [4] was “significant mammalian vasodilatory-hypotensive activity”.

With “H-DNPSLSIDLT[dF]HLLRTLLELARTQSQRERAEQNRIIFDSV-NH2 [[D-Phe^11]-hUcn]” the “vasodilatory-hypotensive activity, including lowering systemic blood pressure and stimulating the secretion of ACTH” value [4] was “significant mammalian vasodilatory-hypotensive activity”.

In the case of “H-Asn-Pro-Ser-Leu-Ser-Ile-Asp-Leu-Thr-Phe-His-Leu-Leu-Arg-Thr-Leu-Leu-Glu-Leu-Ala-Arg-Thr-Gln-Ser-Gln-Arg-Glu-Arg-Ala-Glu-Gln-Asn-Arg-Ile-Ile-Phe-Asp-Ser-Val-NH2 (H-NPSLSIDLTFHLLRTLLELARTQSQRERAEQNRIIFDSV-NH2) [hUcn(2-40)]”, the “vasodilatory-hypotensive activity, including lowering systemic blood pressure and stimulating the secretion of ACTH” value [4] is reported as “significant mammalian vasodilatory-hypotensive activity”.

“Ac-Pro-D-Pro-Leu-Ser-Ile-Asp-Leu-Thr-D-Phe-His-Leu-Leu-Arg-Thr-Leu-Leu-Glu-Leu-Ala-Arg-Thr-Gln-Ser-Gln-Arg-Glu-Glu-Ala-Glu-Lys-Asn-Arg-Ile-Ile-Phe-Asp-Ser-Val-NH2 (Ac-P[dP]LSIDLT[dF]HLLRTLLELARTQSQREEAEKNRIIFDSV-NH2; lactam 27-30 (inferred))” was tested, and the “ACTH secretion … as r/hCRF (confidence limits)” value [3] was 9.90 (4.48-22.85), the “stimulates the secretion” value [3] was “stimulates the secretion of ACTH and β-END-LI” and the “vasodilatory-hypotensive activity, including lowering systemic blood pressure and stimulating the secretion of ACTH” value [4] was “causes vasodilatory-hypotensive activity”.

For “H-[dY]DNPSLSIDLTFHLLRTLLELARTQSQRERAEQNRIIFDSV-NH2 [[D-Tyr^∘]hUcn(1-40)]”, the “ACTH secretion … as r/hCRF (confidence limits)” value [3] was 1.23 (0.60-2.54) and the “vasodilatory-hypotensive activity, including lowering systemic blood pressure and stimulating the secretion of ACTH” value [4] was “significant mammalian vasodilatory-hypotensive activity”.

B1: (cyclo 29-32) [Pro10,D-Phe11, Glu29,D-Glu31, Lys32]-Ucn(10-40) (peptide)
peptide: P[dF]HLLRTLLELARTQSQREEA[dE]KNRIIFDSV-NH2
modifications: lactam 20-23; N-terminus assumed
SMILES: CC[C@H](C)[C@H](NC(=O)[C@H](CCCNC(=N)N)NC(=O)[C@H](CC(N)=O)NC(=O)[C@@H]1CCCCNC(=O)CC[C@H](NC(=O)[C@H](CCC(=O)O)NC(=O)[C@H](CCCNC(=N)N)NC(=O)[C@H](CCC(N)=O)NC(=O)[C@H](CO)NC(=O)[C@H](CCC(N)=O)NC(=O)[C@@H](NC(=O)[C@H](CCCNC(=N)N)NC(=O)[C@H](C)NC(=O)[C@H](CC(C)C)NC(=O)[C@H](CCC(=O)O)NC(=O)[C@H](CC(C)C)NC(=O)[C@H](CC(C)C)NC(=O)[C@@H](NC(=O)[C@H](CCCNC(=N)N)NC(=O)[C@H](CC(C)C)NC(=O)[C@H](CC(C)C)NC(=O)[C@H](Cc2c[nH]cn2)NC(=O)[C@@H](Cc2ccccc2)NC(=O)[C@@H]2CCCN2)[C@@H](C)O)[C@@H](C)O)C(=O)N[C@@H](C)C(=O)N[C@H](CCC(=O)O)C(=O)N1)C(=O)N[C@H](C(=O)N[C@@H](Cc1ccccc1)C(=O)N[C@@H](CC(=O)O)C(=O)N[C@@H](CO)C(=O)N[C@H](C(N)=O)C(C)C)[C@@H](C)CC
For B1, the antagonism of ACTH secretion under a challenge dose of ovine CRF, potency relative to the Standard Antagonist (times Standard Antagonist) [5] was 2.74.

B2: (cyclo 29-32) [D-Pro10,D-Phe11, Glu29, D-Glu31, Lys32]-Ucn(10-40) (peptide)
peptide: [dP][dF]HLLRTLLELARTQSQREEA[dE]KNRIIFDSV-NH2
modifications: lactam 20-23; N-terminus assumed
SMILES: CC[C@H](C)[C@H](NC(=O)[C@H](CCCNC(=N)N)NC(=O)[C@H](CC(N)=O)NC(=O)[C@@H]1CCCCNC(=O)CC[C@H](NC(=O)[C@H](CCC(=O)O)NC(=O)[C@H](CCCNC(=N)N)NC(=O)[C@H](CCC(N)=O)NC(=O)[C@H](CO)NC(=O)[C@H](CCC(N)=O)NC(=O)[C@@H](NC(=O)[C@H](CCCNC(=N)N)NC(=O)[C@H](C)NC(=O)[C@H](CC(C)C)NC(=O)[C@H](CCC(=O)O)NC(=O)[C@H](CC(C)C)NC(=O)[C@H](CC(C)C)NC(=O)[C@@H](NC(=O)[C@H](CCCNC(=N)N)NC(=O)[C@H](CC(C)C)NC(=O)[C@H](CC(C)C)NC(=O)[C@H](Cc2c[nH]cn2)NC(=O)[C@@H](Cc2ccccc2)NC(=O)[C@H]2CCCN2)[C@@H](C)O)[C@@H](C)O)C(=O)N[C@@H](C)C(=O)N[C@H](CCC(=O)O)C(=O)N1)C(=O)N[C@H](C(=O)N[C@@H](Cc1ccccc1)C(=O)N[C@@H](CC(=O)O)C(=O)N[C@@H](CO)C(=O)N[C@H](C(N)=O)C(C)C)[C@@H](C)CC
With B2 the antagonism of ACTH secretion under a challenge dose of ovine CRF, potency relative to the Standard Antagonist (times Standard Antagonist) [5] was 4.99.
